# Source: patent publication US20240115536A1, “DUAL-ACTING PHARMACEUTICAL COMPOSITIONS BASED ON SUPERSTRUCTURES OF ANGIOTENSIN RECEPTOR ANTAGONIST/BLOCKER (ARB) AND NEUTRAL ENDOPEPTIDASE (NEP) INHIBITOR” (Novartis AG, priority 2007, published 2024)
# Where two headings read alike, the source gives them in different places.
# How the values were obtained:
# [1] = Dissolution testing, USP paddle method, pH 6.8 phosphate buffer, 50 rpm; assay type: physicochemical
# Description: The term “dissolution” as used herein refers to a process by which a solid substance, here the active ingredients, is dispersed in molecular form in a medium. The dissolution rate of the active ingredients of the pharmaceutical oral fixed dose combination of the invention is defined by the amount of drug substance that goes in solution per unit time under standardized conditions of liquid/solid interface, temperature and solvent composition. The dissolution rate is measured by standard methods known to the person skilled in the art, see the harmonized procedure set forth in the pharmacopeias USP <711> and EP 2.9.3 and JP. For the purposes of this invention, the test is for measuring the dissolution of the individual active ingredients is performed following pharmacopeia USP <711> at pH 6.8 using a paddle stirring element at 50 rpm (rotations per minute) or alternatively at pH 4.5 using a paddle stirring element at 75 rpm as specified. The dissolution medium is preferably a buffer, typically a phosphate buffer, especially one as described in the example “Dissolution Test”.
# The tablets of the Examples are tested for their dissolution in 900 ml of pH 6.8 phosphate buffer with paddles at 50 rpm.
# The assembly consists of the following: a covered vessel made of glass or other inert, transparent material; a motor, and a paddle formed from a blade and shaft as the stirring element. The vessel is partially immersed in a suitable water bath of any convenient size or placed in a heating jacket. The water bath or heating jacket permits holding the temperature inside the vessels at 37±0.5° during the test and keeping the bath fluid in constant, smooth motion. No part of the assembly, including the environment in which the assembly is placed, contributes significant motion, agitation, or vibration beyond that due to the smoothly rotating stirring element. Apparatus that permits observation of the specimen and stirring element during the test is has the following dimensions and capacities: the height is 160 mm to 210 mm and its inside diameter is 98 mm to 106 mm. Its sides are flanged at the top. A fitted cover may be used to retard evaporation. The shaft is positioned so that its axis is not more than 2 mm at any point from the vertical axis of the vessel and rotates smoothly without significant wobble. The vertical center line of the blade passes through the axis of the shaft so that the bottom of the blade is flush with the bottom of the shaft. The design of the paddle is as shown in USP <711>, FIG. 2. The distance of 25±2 mm between the blade and the inside bottom of the vessel is maintained during the test. The metallic or suitably inert, rigid blade and shaft comprise a single entity. A suitable two-part detachable design may be used provided the assembly remains firmly engaged during the test. The paddle blade and shaft may be coated with a suitable inert coating. The dosage unit is allowed to sink to the bottom of the vessel before rotation of the blade is started. A small, loose piece of nonreactive material such as not more than a few turns of wire helix may be attached to dosage units that would otherwise float. Other validated sinker devices may be used.
# 1L of a buffered aqueous solution, adjusted to pH 6.8±0.05 (0.05 M Phosphate buffer solution obtained by dissolving 6.805 g of potassium dihydrogen phosphate and 0.896 g of sodium hydroxide in and diluting to 1000 ml with water, and adjusting the pH to 6.80±0.05 using 0.2 M sodium hydroxide or 1 M phosphoric acid; referred hereinafter as “Dissolution Medium”) is placed in the vessel of the apparatus, the apparatus is assembled, the Dissolution Medium is equilibrated to 37±0.5°, and the thermometer is removed. 1 dosage form (e.g. tablet or capsule) is placed on the apparatus, taking care to exclude air bubbles from the surface of the dosage-form unit, and immediately the apparatus is operated at a rate of 50+2 rpm. […]
# [2] = Measurement of pharmacokinetic parameters, ascending single dose 5, 20, 80 mg LCZ696 vs 40 mg Diovan
# Description: The study employs a two-period, parallel group, ascending single dose (5, 20, 80 mg of LCZ696 and 40 mg Diovan® (marketed formulation of valsartan), placebo controlled design with dose selection based on FDA exploratory-IND guidance. The dosages of LCZ696 are obtained by using the 5 mg and 50 mg tablets as manufactured above and employing for the 20 mg and 80 mg dose multiple tablets of 5 mg and/or 50 mg strength.
# To enable comparison of the exposure to valsartan between LCZ696 and Diovan® at different dose levels, valsartan's exposure (AUC) and Cmax values are normalized to the actual amount of anhydrous salt-free- valsartan administered (normalized by mg-equivalent). The AUC0-24 values are calculated as ng·h/ml/mg-equivalent of valsartan, and the geometric means are compared.
# [3] = for AUC0-24 for valsartan / Cmax for valsartan / t1/2 for valsartan / tmax for valsartan: healthy volunteers
# [4] = Cohort A (5 mg LCZ696; 40 mg Diovan)
# [5] = Cohort B (20 mg LCZ696; 40 mg Diovan)
# [6] = Cohort C (80 mg LCZ696; 40 mg Diovan)
# [7] = Combined Cohorts A-B-C (pooled data)
# 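For AUC0-24 for valsartan in this document: randomized double-blind placebo-controlled parallel-group study with ascending single doses and 14-day daily dosing cohorts, pharmacokinetics measured in healthy volunteers.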
# 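For Cmax for valsartan in this document: randomized double-blind placebo-controlled parallel-group study with ascending single doses and 14-day daily dosing cohorts, pharmacokinetics measured in healthy volunteers.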
# 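For accumulation of all analytes in this document: randomized double-blind placebo-controlled parallel-group study with ascending single doses and 14-day daily dosing cohorts, pharmacokinetics measured in healthy volunteers.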
# 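For t1/2 for valsartan in this document: randomized double-blind placebo-controlled parallel-group study with ascending single doses and 14-day daily dosing cohorts, pharmacokinetics measured in healthy volunteers.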
smiles,measurement,setting,value
"CCCCC(=O)N(Cc1ccc(-c2ccccc2-c2nn[n-]n2)cc1)[C@H](C(=O)[O-])C(C)C.CCOC(=O)[C@H](C)C[C@@H](Cc1ccc(-c2ccccc2)cc1)NC(=O)CCC(=O)[O-].[Na+].[Na+].[Na+] [LCZ696, trisodium [3-((1S,3R)-1-biphenyl-4-ylmethyl-3-ethoxycarbonyl-1-butylcarbamoyl) propionate-(S)-3′-methyl-2′-(pentanoyl{2″-(tetrazol-5-ylate)biphenyl-4′-ylmethyl}amino)butyrate]hemipentahydrate]",mean valsartan free acid released,"[1]; about 100 mg per unit dosage form, after 10 min",about 50%
same,mean valsartan free acid released,"[1]; about 100 mg per unit dosage form, after 20 min",about 85%
same,mean valsartan free acid released,"[1]; about 100 mg per unit dosage form, after 30 min",about 95%
same,mean valsartan free acid released,"[1]; about 200 mg per unit dosage form, after 10 min",about 50%
same,mean valsartan free acid released,"[1]; about 200 mg per unit dosage form, after 20 min",about 85%
same,mean valsartan free acid released,"[1]; about 200 mg per unit dosage form, after 30 min",about 95%
same,mean valsartan free acid released,"[1]; about 400 mg per unit dosage form, after 10 min",about 40%
same,mean valsartan free acid released,"[1]; about 400 mg per unit dosage form, after 20 min",about 70%
same,mean valsartan free acid released,"[1]; about 400 mg per unit dosage form, after 30 min",about 90%
same,dose linearity of valsartan exposures,"[2]; 5, 20, 80 mg LCZ696 single dose",dose linear
same,"AUC0-24, dose-normalized, geometric mean, valsartan",[2]; [4],364 ng * h/ml/mg-equivalent
same,AUC0-24 ratio LCZ696/Diovan,[2]; [4],1.81
same,AUC0-inf ratio LCZ696/Diovan,[2]; [4],1.81
same,"AUC0-inf, dose-normalized, geometric mean, valsartan",[2]; [4],372 ng * h/ml/mg-equivalent
same,Cmax ratio LCZ696/Diovan,[2]; [4],2.09
same,"Cmax, dose-normalized, geometric mean, valsartan",[2]; [4],56 ng/ml/mg-equivalent
same,"AUC0-24, dose-normalized, geometric mean, valsartan",[2]; [5],280 ng * h/ml/mg-equivalent
same,AUC0-24 ratio LCZ696/Diovan,[2]; [5],1.38
same,AUC0-inf ratio LCZ696/Diovan,[2]; [5],1.38
same,"AUC0-inf, dose-normalized, geometric mean, valsartan",[2]; [5],284 ng * h/ml/mg-equivalent
same,Cmax ratio LCZ696/Diovan,[2]; [5],1.69
same,"Cmax, dose-normalized, geometric mean, valsartan",[2]; [5],44 ng/ml/mg-equivalent
same,"AUC0-24, dose-normalized, geometric mean, valsartan",[2]; [6],244 ng * h/ml/mg-equivalent
same,AUC0-24 ratio LCZ696/Diovan,[2]; [6],1.67
same,AUC0-inf ratio LCZ696/Diovan,[2]; [6],1.64
same,"AUC0-inf, dose-normalized, geometric mean, valsartan",[2]; [6],245 ng * h/ml/mg-equivalent
same,Cmax ratio LCZ696/Diovan,[2]; [6],2.1
same,"Cmax, dose-normalized, geometric mean, valsartan",[2]; [6],43 ng/ml/mg-equivalent
same,"AUC0-24, dose-normalized, geometric mean, valsartan",[2]; [7],292 ng * h/ml/mg-equivalent
same,AUC0-24 ratio LCZ696/Diovan,[2]; [7],1.61
same,AUC0-inf ratio LCZ696/Diovan,[2]; [7],1.6
same,"AUC0-inf, dose-normalized, geometric mean, valsartan",[2]; [7],296 ng * h/ml/mg-equivalent
same,Cmax ratio LCZ696/Diovan,[2]; [7],1.95
same,"Cmax, dose-normalized, geometric mean, valsartan",[2]; [7],47 ng/ml/mg-equivalent
same,tmax of valsartan free acid,[2]; oral administration,1.8 ± 0.3 h
same,enhanced oral bioavailability of valsartan free acid versus Diovan formulation,"[2]; oral, analyte valsartan free acid, listed as therapeutic agent",1.6 fold
same,tmax for valsartan (mean),"[2]; single dose, range of cohort means",1.3 to 1.8 h
same,"ratio of geometric means for AUC, LCZ696/Diovan","[2]; valsartan, dose-equivalent normalized, pooled cohorts",161%
same,AUC0-24 for valsartan,[3]; 50 mg daily for 14 days,6935 ng·h/mL
same,Cmax for valsartan,[3]; 50 mg daily for 14 days,1233 ng/mL
same,t1/2 for valsartan,[3]; 50 mg daily for 14 days,15.2 h
same,tmax for valsartan,[3]; 50 mg daily for 14 days,1.6 h
same,AUC0-24 for valsartan,[3]; 200 mg daily for 14 days,21079 ng·h/mL
same,Cmax for valsartan,[3]; 200 mg daily for 14 days,3990 ng/mL
same,t1/2 for valsartan,[3]; 200 mg daily for 14 days,22.1 h
same,tmax for valsartan,[3]; 200 mg daily for 14 days,1.8 h
same,AUC0-24 for valsartan,[3]; 600 mg daily for 14 days,58876 ng·h/mL
same,Cmax for valsartan,[3]; 600 mg daily for 14 days,8563 ng/mL
same,t1/2 for valsartan,[3]; 600 mg daily for 14 days,22.6 h
same,tmax for valsartan,[3]; 600 mg daily for 14 days,2.2 h
same,AUC0-24 for valsartan,[3]; 900 mg daily for 14 days,54920 ng·h/mL
same,Cmax for valsartan,[3]; 900 mg daily for 14 days,8960 ng/mL
same,t1/2 for valsartan,[3]; 900 mg daily for 14 days,15.0 h
same,tmax for valsartan,[3]; 900 mg daily for 14 days,4.9 h
same,accumulation of all analytes,[3]; 50-900 mg LCZ696 once daily for 14 days,Minimal accumulation
same,AUC0-24 for valsartan,[3]; single dose 200 mg,16970 ng·h/mL
same,Cmax for valsartan,[3]; single dose 200 mg,3309 ng/mL
same,t1/2 for valsartan,[3]; single dose 200 mg,11.7 h
same,tmax for valsartan,[3]; single dose 200 mg,1.7 h
same,AUC0-24 for valsartan,[3]; single dose 600 mg,40645 ng·h/mL
same,Cmax for valsartan,[3]; single dose 600 mg,7269 ng/mL
same,t1/2 for valsartan,[3]; single dose 600 mg,16.6 h
same,tmax for valsartan,[3]; single dose 600 mg,1.9 h
same,AUC0-24 for valsartan,[3]; single dose 900 mg,53568 ng·h/mL
same,Cmax for valsartan,[3]; single dose 900 mg,8374 ng/mL
same,t1/2 for valsartan,[3]; single dose 900 mg,14.9 h
same,tmax for valsartan,[3]; single dose 900 mg,2.2 h
same,AUC0-24 for valsartan,[3]; single dose 1200 mg,60118 ng·h/mL
same,Cmax for valsartan,[3]; single dose 1200 mg,7448 ng/mL
same,t1/2 for valsartan,[3]; single dose 1200 mg,8.9 h
same,tmax for valsartan,[3]; single dose 1200 mg,2.2 h
